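Growth conditions: 96-well plates. Treatment: test compound, 48 hours, 5 concentrations. Analysis: linear interpolation between bracketing concentrations; unreached endpoints set to highest concentration. Definition used: TGI = concentration required for complete inhibition of growth.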
What was measured:
Test in all cases: NCI anticancer screen, dose series, 48 h
786-0 renal = test system: 786-0 renal
A498 renal = test system: A498 renal
A549 NSCLC = test system: A549 NSCLC
ACHN renal = test system: ACHN renal
BT-549 breast = test system: BT-549 breast
CAKI-1 renal = test system: CAKI-1 renal
CCRF-CEM leukemia = test system: CCRF-CEM leukemia
COLO 205 colon = test system: COLO 205 colon
DU-145 prostate = test system: DU-145 prostate
EKVX NSCLC = test system: EKVX NSCLC
HCC-2998 colon = test system: HCC-2998 colon
HCT-116 colon = test system: HCT-116 colon
HCT-15 colon = test system: HCT-15 colon
HL-60(TB) leukemia = test system: HL-60(TB) leukemia
HOP-62 NSCLC = test system: HOP-62 NSCLC
HOP-92 NSCLC = test system: HOP-92 NSCLC
HS 578T breast = test system: HS 578T breast
HT29 colon = test system: HT29 colon
IGROV1 ovarian = test system: IGROV1 ovarian
K-562 leukemia = test system: K-562 leukemia
KM12 colon = test system: KM12 colon
LOX IMVI melanoma = test system: LOX IMVI melanoma
M14 melanoma = test system: M14 melanoma
MALME-3M melanoma = test system: MALME-3M melanoma
MCF7 breast = test system: MCF7 breast
MDA-MB-231 breast = test system: MDA-MB-231 breast
MDA-MB-435 = test system: MDA-MB-435
MDA-N = test system: MDA-N
MOLT-4 leukemia = test system: MOLT-4 leukemia
NCI-H226 lung = test system: NCI-H226 lung
NCI-H23 lung = test system: NCI-H23 lung
NCI-H460 lung = test system: NCI-H460 lung
NCI-H522 lung = test system: NCI-H522 lung
NCI/ADR-RES ovarian = test system: NCI/ADR-RES ovarian
OVCAR-3 ovarian = test system: OVCAR-3 ovarian
OVCAR-4 ovarian = test system: OVCAR-4 ovarian
OVCAR-5 ovarian = test system: OVCAR-5 ovarian
OVCAR-8 ovarian = test system: OVCAR-8 ovarian
PC-3 prostate = test system: PC-3 prostate
RPMI-8226 leukemia = test system: RPMI-8226 leukemia
RXF 393 renal = test system: RXF 393 renal
SF-268 CNS = test system: SF-268 CNS
SF-295 CNS = test system: SF-295 CNS
SF-539 CNS = test system: SF-539 CNS
SK-MEL-2 melanoma = test system: SK-MEL-2 melanoma
SK-MEL-28 melanoma = test system: SK-MEL-28 melanoma
SK-MEL-5 melanoma = test system: SK-MEL-5 melanoma
SK-OV-3 ovarian = test system: SK-OV-3 ovarian
SN12C renal = test system: SN12C renal
SNB-19 CNS = test system: SNB-19 CNS
SR leukemia = test system: SR leukemia
SW-620 colon = test system: SW-620 colon
T-47D breast = test system: T-47D breast
TK-10 renal = test system: TK-10 renal
U251 CNS = test system: U251 CNS
UACC-257 melanoma = test system: UACC-257 melanoma
UACC-62 melanoma = test system: UACC-62 melanoma
UO-31 renal = test system: UO-31 renal
SNB-75 CNS = test system: SNB-75 CNS

**Q.** With `Nc1nc2c(C(=O)NCc3cccs3)nnn2c2cccc(Cl)c12` as the compound, how does the TGI (786-0 renal) read?
**A.** > 100 µM

**Q.** What about the TGI (A498 renal) of the same compound?
**A.** > 100 µM

**Q.** What about the TGI (A549 NSCLC) of the same compound?
**A.** > 100 µM

**Q.** And the TGI (ACHN renal)?
**A.** > 100 µM

**Q.** What about the TGI (BT-549 breast) of the same compound?
**A.** > 100 µM

**Q.** What about the TGI (CAKI-1 renal) of the same compound?
**A.** > 100 µM

**Q.** What about the TGI (CCRF-CEM leukemia) of the same compound?
**A.** 55.6 µM

**Q.** And the TGI (COLO 205 colon)?
**A.** > 100 µM

**Q.** What about the TGI (DU-145 prostate) of the same compound?
**A.** > 100 µM

**Q.** What about the TGI (EKVX NSCLC) of the same compound?
**A.** > 100 µM

**Q.** And the TGI (HCC-2998 colon)?
**A.** > 100 µM

**Q.** And the TGI (HCT-116 colon)?
**A.** > 100 µM

**Q.** And the TGI (HCT-15 colon)?
**A.** > 100 µM

**Q.** And the TGI (HL-60(TB) leukemia)?
**A.** > 100 µM

**Q.** And the TGI (HOP-62 NSCLC)?
**A.** > 100 µM

**Q.** And the TGI (HOP-92 NSCLC)?
**A.** > 100 µM

**Q.** And the TGI (HS 578T breast)?
**A.** > 100 µM

**Q.** What about the TGI (HT29 colon) of the same compound?
**A.** > 100 µM

**Q.** What about the TGI (IGROV1 ovarian) of the same compound?
**A.** > 100 µM

**Q.** And the TGI (K-562 leukemia)?
**A.** > 100 µM

**Q.** What about the TGI (KM12 colon) of the same compound?
**A.** > 100 µM

**Q.** And the TGI (LOX IMVI melanoma)?
**A.** > 100 µM

**Q.** What about the TGI (M14 melanoma) of the same compound?
**A.** > 100 µM

**Q.** And the TGI (MALME-3M melanoma)?
**A.** > 100 µM

**Q.** And the TGI (MCF7 breast)?
**A.** > 100 µM

**Q.** What about the TGI (MDA-MB-231 breast) of the same compound?
**A.** > 100 µM

**Q.** And the TGI (MDA-MB-435)?
**A.** > 100 µM

**Q.** And the TGI (MDA-N)?
**A.** > 100 µM

**Q.** And the TGI (MOLT-4 leukemia)?
**A.** > 100 µM

**Q.** And the TGI (NCI-H226 lung)?
**A.** > 100 µM

**Q.** What about the TGI (NCI-H23 lung) of the same compound?
**A.** > 100 µM

**Q.** And the TGI (NCI-H460 lung)?
**A.** > 100 µM

**Q.** What about the TGI (NCI-H522 lung) of the same compound?
**A.** > 100 µM

**Q.** And the TGI (NCI/ADR-RES ovarian)?
**A.** > 100 µM

**Q.** What about the TGI (OVCAR-3 ovarian) of the same compound?
**A.** > 100 µM

**Q.** What about the TGI (OVCAR-4 ovarian) of the same compound?
**A.** > 100 µM

**Q.** What about the TGI (OVCAR-5 ovarian) of the same compound?
**A.** > 100 µM

**Q.** And the TGI (OVCAR-8 ovarian)?
**A.** > 100 µM

**Q.** What about the TGI (PC-3 prostate) of the same compound?
**A.** > 100 µM

**Q.** What about the TGI (RPMI-8226 leukemia) of the same compound?
**A.** > 100 µM

**Q.** What about the TGI (RXF 393 renal) of the same compound?
**A.** > 100 µM

**Q.** What about the TGI (SF-268 CNS) of the same compound?
**A.** > 100 µM

**Q.** And the TGI (SF-295 CNS)?
**A.** > 100 µM

**Q.** What about the TGI (SF-539 CNS) of the same compound?
**A.** > 100 µM

**Q.** What about the TGI (SK-MEL-2 melanoma) of the same compound?
**A.** > 100 µM

**Q.** What about the TGI (SK-MEL-28 melanoma) of the same compound?
**A.** > 100 µM

**Q.** And the TGI (SK-MEL-5 melanoma)?
**A.** > 100 µM

**Q.** What about the TGI (SK-OV-3 ovarian) of the same compound?
**A.** > 100 µM

**Q.** And the TGI (SN12C renal)?
**A.** > 100 µM

**Q.** What about the TGI (SNB-19 CNS) of the same compound?
**A.** > 100 µM

**Q.** What about the TGI (SR leukemia) of the same compound?
**A.** > 100 µM

**Q.** And the TGI (SW-620 colon)?
**A.** > 100 µM

**Q.** And the TGI (T-47D breast)?
**A.** 50.7 µM

**Q.** And the TGI (TK-10 renal)?
**A.** > 100 µM

**Q.** What about the TGI (U251 CNS) of the same compound?
**A.** > 100 µM

**Q.** And the TGI (UACC-257 melanoma)?
**A.** > 100 µM

**Q.** And the TGI (UACC-62 melanoma)?
**A.** > 100 µM

**Q.** What about the TGI (UO-31 renal) of the same compound?
**A.** > 100 µM

**Q.** `O=C(c1ccc(Cl)cc1)N1CCN=C1c1cc2ccccc2c2ccccc12` was tested. Which TGI (786-0 renal) did it give?
**A.** 30.4 µM

**Q.** And the TGI (A498 renal)?
**A.** 28.9 µM

**Q.** And the TGI (A549 NSCLC)?
**A.** 31 µM

**Q.** And the TGI (ACHN renal)?
**A.** 31.2 µM

**Q.** And the TGI (BT-549 breast)?
**A.** 33.6 µM

**Q.** And the TGI (CAKI-1 renal)?
**A.** 35.7 µM

**Q.** What about the TGI (CCRF-CEM leukemia) of the same compound?
**A.** 81.1 µM

**Q.** And the TGI (COLO 205 colon)?
**A.** 29.5 µM

**Q.** What about the TGI (DU-145 prostate) of the same compound?
**A.** 38.4 µM

**Q.** What about the TGI (EKVX NSCLC) of the same compound?
**A.** 28 µM

**Q.** What about the TGI (HCT-116 colon) of the same compound?
**A.** 28.1 µM

**Q.** What about the TGI (HCT-15 colon) of the same compound?
**A.** 31.3 µM

**Q.** And the TGI (HL-60(TB) leukemia)?
**A.** 49.9 µM

**Q.** And the TGI (HOP-62 NSCLC)?
**A.** 33.3 µM

**Q.** What about the TGI (HOP-92 NSCLC) of the same compound?
**A.** 26.3 µM

**Q.** And the TGI (HS 578T breast)?
**A.** 35.9 µM

**Q.** What about the TGI (HT29 colon) of the same compound?
**A.** 30 µM

**Q.** And the TGI (IGROV1 ovarian)?
**A.** 29.2 µM

**Q.** And the TGI (K-562 leukemia)?
**A.** 95.8 µM

**Q.** And the TGI (KM12 colon)?
**A.** 30.6 µM

**Q.** And the TGI (LOX IMVI melanoma)?
**A.** 36.1 µM

**Q.** What about the TGI (M14 melanoma) of the same compound?
**A.** > 100 µM

**Q.** What about the TGI (MALME-3M melanoma) of the same compound?
**A.** 32.5 µM

**Q.** What about the TGI (MCF7 breast) of the same compound?
**A.** 34.2 µM

**Q.** And the TGI (MDA-MB-231 breast)?
**A.** 29.9 µM

**Q.** What about the TGI (MDA-MB-435) of the same compound?
**A.** 31.9 µM

**Q.** What about the TGI (MDA-N) of the same compound?
**A.** 31.9 µM

**Q.** What about the TGI (MOLT-4 leukemia) of the same compound?
**A.** > 100 µM

**Q.** What about the TGI (NCI-H23 lung) of the same compound?
**A.** 32.7 µM

**Q.** What about the TGI (NCI-H460 lung) of the same compound?
**A.** 24.9 µM

**Q.** And the TGI (NCI/ADR-RES ovarian)?
**A.** 33.3 µM

**Q.** What about the TGI (OVCAR-3 ovarian) of the same compound?
**A.** 35.3 µM

**Q.** And the TGI (OVCAR-4 ovarian)?
**A.** 27.7 µM

**Q.** What about the TGI (OVCAR-5 ovarian) of the same compound?
**A.** 35.1 µM

**Q.** What about the TGI (OVCAR-8 ovarian) of the same compound?
**A.** 33.5 µM

**Q.** And the TGI (PC-3 prostate)?
**A.** 37.2 µM

**Q.** And the TGI (RPMI-8226 leukemia)?
**A.** 55.8 µM

**Q.** What about the TGI (RXF 393 renal) of the same compound?
**A.** 30.6 µM

**Q.** And the TGI (SF-268 CNS)?
**A.** 31.9 µM

**Q.** What about the TGI (SF-295 CNS) of the same compound?
**A.** 30.5 µM

**Q.** What about the TGI (SF-539 CNS) of the same compound?
**A.** 29.1 µM

**Q.** What about the TGI (SK-MEL-2 melanoma) of the same compound?
**A.** 31.4 µM

**Q.** What about the TGI (SK-MEL-28 melanoma) of the same compound?
**A.** 29.7 µM

**Q.** What about the TGI (SK-MEL-5 melanoma) of the same compound?
**A.** 27.9 µM

**Q.** And the TGI (SK-OV-3 ovarian)?
**A.** 29.6 µM

**Q.** And the TGI (SN12C renal)?
**A.** 30.6 µM

**Q.** What about the TGI (SNB-19 CNS) of the same compound?
**A.** 30.5 µM

**Q.** What about the TGI (SNB-75 CNS) of the same compound?
**A.** 25.7 µM

**Q.** What about the TGI (SR leukemia) of the same compound?
**A.** 59 µM

**Q.** And the TGI (SW-620 colon)?
**A.** 32.2 µM

**Q.** And the TGI (T-47D breast)?
**A.** 54.4 µM

**Q.** And the TGI (TK-10 renal)?
**A.** 29.2 µM

**Q.** What about the TGI (U251 CNS) of the same compound?
**A.** 30.5 µM

**Q.** What about the TGI (UACC-257 melanoma) of the same compound?
**A.** 31.8 µM

**Q.** And the TGI (UACC-62 melanoma)?
**A.** 27.7 µM

**Q.** And the TGI (UO-31 renal)?
**A.** 31.5 µM

From PubChem BioAssay (NCI)
